The text below walks through data of publication PMC10480608 (Heliyon, 2023).

Read-outs that look alike come from different tables or passages of the source. Bounds are passed on as bounds.

In general, IC50 refers to the concentration at which inhibition is half-maximal.

Data set [1] concerns MDA-231 breast cancer cells. Put plainly: MTT cytotoxicity assay, MDA-231. It is filed as cell-based, human. For orientation: Tetrazolium assays rely on reduction of a dye to a coloured formazan, in cell work by metabolically active cells.
The subject of data set [2] is MCF-7 (human breast adenocarcinoma). Kind of data set: MTT cytotoxicity assay, MCF-7. Particulars: read-out: IC50 ± SD, MCF7. It is filed as cell-based.
Data set [3] relates to normal human dermal/fibroblasts. Kind of data set: MTT cytotoxicity assay, normal fibroblasts. Conditions: read-out: IC50 ± SD, Fibro dental, 72 h. The class given is cell-based.
The subject of data set [4] is DU145 prostate cancer cells. Put plainly: MTT cytotoxicity assay, DU145. The class given is cell-based, human.
In data set [5] the test system is HepG2 (hepatocellular carcinoma). Kind of data set: MTT cytotoxicity assay, HepG2. It is filed as cell-based, human. Particulars: read-out: IC50 ± SD, HEPG-2.
Another data set concerns MCF-7 cell lines. Put plainly: Dose response study, growth rate. It is filed as cell-based, human. Conditions: MCF-7, treatment for 24 h, tested 1–300 μg/mL.
Data set [6] relates to PC3 (human prostate carcinoma). Kind of data set: MTT cytotoxicity assay, PC3. It is filed as cell-based. Particulars: 72 h, read-out: IC50 ± SD, PC-3.
Where [7] appears, read: Homo sapiens, MDA-MB-231, read-out: IC50 ± SD, MDA-231.
[8] abbreviates: Homo sapiens, DU-145, read-out: IC50 ± SD, DU145.

Consider `N.N.[Cl][Pt][Cl]` [Cisplatin, reference compound], for which the IC50 in data set [1] (read-out: IC50 ± SD, MDA-231, Breast cancer cells, MTT, mean ± SD) was 16.2 ± 1.6 µM; in data set [2] (Breast cancer cells, MTT, 72 h, mean ± SD), 14.6 ± 2.8 µM; in data set [3] (Normal cells, MTT, mean ± SD), over 100 µM; in data set [4] (read-out: IC50 ± SD, DU145, Prostate cancer cells, MTT, mean ± SD) it was 8.5 ± 1.7 µM; in data set [5] (Liver cancer cells, MTT, 72 h, mean ± SD), 9.64 ± 1.7 µM.

With `Cc1nc([N+](=O)[O-])c(N2CCN(Cc3cn(Cc4cccc(F)c4)nn3)CC2)n1Cc1ccccc1` [Compound 9g, 1-(N1-benzyl-2-methyl-4-nitro-imidazole-5-yl)-4-((N1-(3-fluorobenzyl)-1H-1,2,3-triazol-4-yl)methyl)piperazine], in the data set with MCF-7 cell lines, the “concentration range with cytostatic effect (GR values)” value is 1 to 300 µg/mL and the “concentration range with cytotoxic effect (GR values)” value was “did not show cytotoxic effects”. Further, the IC50 in data set [2] (Homo sapiens, MCF7, 72 h) came out at 2 ± 0.03 µM. In addition, in data set [3] (Homo sapiens, Fibroblast), the IC50 is over 500 µM.

As for `Cc1ccc(Cn2cc(CN3CCN(c4c([N+](=O)[O-])nc(C)n4Cc4ccccc4)CC3)nn2)cc1` [Compound 9k, 1-(N1-benzyl-2-methyl-4-nitro-imidazole-5-yl)-4-((N1-(4-methylbenzyl)-1H-1,2,3-triazol-4-yl)methyl)piperazine], the “concentration range with cytostatic effect (GR values)” value in the data set on MCF-7 cell lines fell in the range of 37.5 to 1 μg/mL. Moreover, the “concentration range with cytotoxic effect (GR values)” value in the data set with MCF-7 cell lines fell in the range of 75 to 300 µg/mL. The IC50 in data set [2] (Homo sapiens, MCF7, 72 h) is 5 ± 2 µM; in data set [3] (Homo sapiens, Fibroblast), over 500 µM.

In the case of `Cc1nc([N+](=O)[O-])c(N2CCN(Cc3cn(CC(=O)c4ccccc4)nn3)CC2)n1Cc1ccccc1` [Compound 10a, 2-(4-((4-(1-benzyl-2-methyl-4-nitro-1H-imidazole-5-yl)piperazin-1-yl)methyl)-1H-1,2,3-triazol-1-yl)-1-phenylethanone], the IC50 in data set [1] (setting [7]) turned out to be 1.15 ± 0.5 µM; in data set [2] (Homo sapiens, MCF7, 72 h), 112 ± 30 µM; in data set [4] (setting [8]), 3.16 ± 0.03 µM.

For the compound `Cc1nc([N+](=O)[O-])c(N2CCN(Cc3cn(CC(=O)c4ccc(Br)cc4)nn3)CC2)n1Cc1ccccc1` [Compound 10b, 2-(4-((4-(1-benzyl-2-methyl-4-nitro-1H-imidazole-5-yl)piperazin-1-yl)methyl)-1H-1,2,3-triazol-1-yl)-1-(4-bromophenyl)ethanone], the IC50 in data set [1] (setting [7]) turned out to be 1.33 ± 0.9 µM; in data set [2] (Homo sapiens, MCF7, 72 h), 372 ± 30 µM; in data set [4] (setting [8]), 8.95 ± 1.7 µM.

`COc1cccc(C(=O)Cn2cc(CN3CCN(c4c([N+](=O)[O-])nc(C)n4Cc4ccccc4)CC3)nn2)c1` [Compound 10c, 2-(4-((4-(1-benzyl-2-methyl-4-nitro-1H-imidazole-5-yl)piperazin-1-yl)methyl)-1H-1,2,3-triazol-1-yl)-1-(3-methoxyphenyl)ethanone]: the 50% inhibitory concentration (IC50) in data set [1] (setting [7]) was 1.38 ± 1.3 µM; in data set [2] (Homo sapiens, MCF7, 72 h) it was 585 ± 37 µM; in data set [3] (Homo sapiens, Fibroblast) it was over 500 µM; in data set [4] (setting [8]) it was 15 ± 1.6 µM.

As for `Cc1nc([N+](=O)[O-])c(N2CCN(Cc3cn(-c4ccc(Cl)cc4)nn3)CC2)n1Cc1ccccc1` [Compound 11j, 1-(N1-benzyl-2-methyl-4-nitro-1H-imidazole-5-yl)-4-((N1-(4-chlorophenyl)-1H-1,2,3-triazol-4-yl)methyl)piperazine], the IC50 in data set [6] was over 500 µM; in data set [2] (Homo sapiens, MCF7, 72 h), 279 ± 20 µM; in data set [3] (Homo sapiens, Fibroblast), over 500 µM; in data set [5] (Homo sapiens, HepG2, 72 h) it was over 500 µM.

With `Cc1nc([N+](=O)[O-])c(N2CCN(Cc3cn(-c4ccc5c(c4)OCO5)nn3)CC2)n1Cc1ccccc1` [Compound 11p, 1-((N1-(benzo[d] [1,3]dioxol-5-yl)-1H-1,2,3-triazol-4-yl)methyl)-4-(N1-benzyl-2-methyl-4-nitro-1H-imidazole-5-yl) piperazine], the IC50 stood at 11.7 ± 1.6 µM in data set [1] (setting [7]); 52 ± 30 µM in data set [2] (Homo sapiens, MCF7, 72 h); 0.803 ± 0.04 µM in data set [4] (setting [8]).

As for `COc1cccc2c1C(=O)c1c(O)c3c(c(O)c1C2=O)C[C@@](O)(C(=O)CO)C[C@@H]3O[C@H]1C[C@H](N)[C@H](O)[C@H](C)O1` [Doxorubicin, reference compound], the 50% inhibitory concentration (IC50) in data set [1] (setting [7]) is 2.3 ± 1.3 µM; in data set [6] it was 0.62 ± 0.06 µM; in data set [2] (Homo sapiens, MCF7, 72 h) it was 0.64 ± 0.04 µM; in data set [3] (Homo sapiens, Fibroblast), over 100 µM; in data set [4] (setting [8]) it was 0.66 ± 0.04 µM; in data set [5] (Homo sapiens, HepG2, 72 h), 0.61 ± 0.05 µM.
